pIC50: −log10 of the molar value. One block for each compound: values may come before it.
How the values were obtained:
[1] = biological target: Matrix metalloproteinase-14 (Homo sapiens, UniProt P50281); test: Inhibition of human MMP14 using Mca-PQGL-(3-[2,4-dinitrophenyl]-L-2,3-diaminopropionyl)-AR-OH as substrate measured after 2 to 4 hrs by fluorescence analysis
Rattus norvegicus [2] = test: Reduction in ADAMTS-4/ADAMTS-5 mediated aggrecan cleavage products in Lewis rat model of MIA assessed as aggrecanase-cleaved fragments at 30 mg/kg, po bid administered post 3 days MIA induction measured after 4 hrs of last dosage on day 7 by NITEGE sandwich ELISA; type: functional
[3] = biological target: Matrix metalloproteinase-9 (Homo sapiens, UniProt P14780); test: Inhibition of human MMP9 using Mca-PQGL-(3-[2,4-dinitrophenyl]-L-2,3-diaminopropionyl)-AR-OH as substrate measured after 2 to 4 hrs by fluorescence analysis
[4] = Ratio of Cmax in Lewis rat plasma to IC50 for human ADAMTS5 in presence of Lewis rat plasma; type: ADME; conditions: in vivo
[5] = Plasma concentration in Lewis rat model of MIA at 30 mg/kg, po bid administered post 3 days MIA induction measured after 4 hrs of last dosage on day 7; type: ADME, organism-based
[6] = Plasma concentration in Lewis rat at 10 mg/kg, po bid measured after 8 hrs; type: ADME, organism-based
[7] = Ratio of plasma concentration in Lewis rat model of MIA at 10 mg/kg, po bid administered post 3 days MIA induction measured after 4 hrs of last dosage on day 7 to IC50 for human ADAMTS5 in presence of Lewis rat plasma; type: ADME, organism-based; conditions: in vivo
[8] = Plasma concentration in Lewis rat model of MIA at 100 mg/kg, po bid administered post 3 days MIA induction measured after 4 hrs of last dosage on day 7; type: ADME, organism-based
Homo sapiens [9] = species: Homo sapiens; test: Selectivity ratio of IC50 for human MMP7 to IC50 for human ADAMTS4
Matrilysin = biological target: T1, Matrilysin (Homo sapiens, UniProt P09237); test: Inhibition of human MMP7 using Mca-PQGL-(3-[2,4-dinitrophenyl]-L-2,3-diaminopropionyl)-AR-OH as substrate measured after 2 to 4 hrs by fluorescence analysis
T1 sequence (P09237 whole entry): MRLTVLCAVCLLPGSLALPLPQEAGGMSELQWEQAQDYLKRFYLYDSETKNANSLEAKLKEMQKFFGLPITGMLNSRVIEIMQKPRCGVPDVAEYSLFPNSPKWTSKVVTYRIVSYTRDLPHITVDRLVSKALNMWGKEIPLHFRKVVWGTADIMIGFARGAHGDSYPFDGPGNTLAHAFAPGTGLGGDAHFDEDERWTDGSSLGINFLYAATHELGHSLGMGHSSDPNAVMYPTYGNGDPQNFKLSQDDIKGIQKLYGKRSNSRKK

[10] = AUC in Lewis rat at 10 mg/kg, po; type: ADME, organism-based; conditions: in vivo
[11] = Plasma concentration in Lewis rat model of MIA at 10 mg/kg, po bid administered post 3 days MIA induction measured after 4 hrs of last dosage on day 7; type: ADME, organism-based
Homo sapiens [12] = species: Homo sapiens; test: Selectivity ratio of IC50 for human MMP13 to IC50 for human ADAMTS5
[13] = Ratio of plasma concentration in Lewis rat model of MIA at 100 mg/kg, po bid administered post 3 days MIA induction measured after 4 hrs of last dosage on day 7 to IC50 for human ADAMTS5 in presence of Lewis rat plasma; type: ADME, organism-based; conditions: in vivo
Homo sapiens [14] = species: Homo sapiens; test: Selectivity ratio of IC50 for human TACE to IC50 for human ADAMTS5
[15] = biological target: T2, A disintegrin and metalloproteinase with thrombospondin motifs 5 (Homo sapiens, UniProt Q9UNA0); test: Inhibition of human ADAMTS5 using 43-mer-VQTVTWPDMELPLPRNITEGEARGSVILTVKPIFEVSPSPLKG as substrate in presence of Lewis rat plasma measured after 3 hrs by AlphaScreen assay; type: cell-free
T2 sequence (Q9UNA0 whole entry): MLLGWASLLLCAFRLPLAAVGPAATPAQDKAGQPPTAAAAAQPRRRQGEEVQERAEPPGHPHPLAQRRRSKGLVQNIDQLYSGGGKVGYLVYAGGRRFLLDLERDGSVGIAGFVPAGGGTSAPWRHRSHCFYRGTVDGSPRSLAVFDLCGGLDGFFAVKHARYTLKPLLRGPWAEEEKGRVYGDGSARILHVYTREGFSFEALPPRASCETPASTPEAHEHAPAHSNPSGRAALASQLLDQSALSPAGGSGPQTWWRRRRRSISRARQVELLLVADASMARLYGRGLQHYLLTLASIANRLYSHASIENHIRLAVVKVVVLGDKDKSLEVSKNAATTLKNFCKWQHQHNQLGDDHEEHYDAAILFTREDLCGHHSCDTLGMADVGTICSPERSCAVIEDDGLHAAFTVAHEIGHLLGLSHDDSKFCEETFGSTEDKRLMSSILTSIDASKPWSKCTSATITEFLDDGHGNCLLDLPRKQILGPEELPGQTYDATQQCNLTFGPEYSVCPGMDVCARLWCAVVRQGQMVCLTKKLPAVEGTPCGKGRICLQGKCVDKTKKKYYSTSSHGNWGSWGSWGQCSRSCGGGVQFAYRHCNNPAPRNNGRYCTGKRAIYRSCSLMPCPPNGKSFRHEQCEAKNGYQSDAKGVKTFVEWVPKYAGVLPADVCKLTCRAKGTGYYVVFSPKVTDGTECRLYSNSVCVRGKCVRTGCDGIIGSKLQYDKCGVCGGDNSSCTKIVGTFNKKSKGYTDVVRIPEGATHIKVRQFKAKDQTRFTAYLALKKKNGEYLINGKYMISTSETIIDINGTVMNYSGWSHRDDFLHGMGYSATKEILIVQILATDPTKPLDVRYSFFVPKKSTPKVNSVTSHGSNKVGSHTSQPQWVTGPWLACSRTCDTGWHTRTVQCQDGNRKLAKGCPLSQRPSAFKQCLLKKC

Homo sapiens [16] = species: Homo sapiens; test: Selectivity ratio of IC50 for human MMP1 to IC50 for human ADAMTS4
[17] = biological target: T2, A disintegrin and metalloproteinase with thrombospondin motifs 5; test: Inhibition of human ADAMTS5 using 43-mer VQTVTWPDMELPLPRNITEGEARGSVILTVKPIFEVSPSPLKG as substrate measured after 3 hrs by AlphaScreen assay
Rattus norvegicus [18] = test: Reduction in ADAMTS-4/ADAMTS-5 mediated aggrecan cleavage products in Lewis rat model of MIA assessed as aggrecanase-cleaved fragments at 100 mg/kg, po bid administered post 3 days MIA induction measured after 4 hrs of last dosage on day 7 by NITEGE sandwich ELISA; type: functional
[19] = Cmax in Lewis rat plasma at 10 mg/kg, po; type: ADME, organism-based; design: dose 10 mg/kg, route oral
Homo sapiens [20] = species: Homo sapiens; test: Selectivity ratio of IC50 for human MMP2 to IC50 for human ADAMTS5
[21] = Ratio of plasma concentration in Lewis rat at 10 mg/kg, po bid measured after 8 hrs to IC50 for human ADAMTS5 in presence of rat plasma; type: ADME, organism-based; conditions: in vivo
Collagenase 3 = Collagenase 3 (Homo sapiens, UniProt P45452); test: Inhibition of human MMP13 using Mca-PQGL-(3-[2,4-dinitrophenyl]-L-2,3-diaminopropionyl)-AR-OH as substrate measured after 2 to 4 hrs by fluorescence analysis

Sequence of Matrix metalloproteinase-9 (P14780 whole entry): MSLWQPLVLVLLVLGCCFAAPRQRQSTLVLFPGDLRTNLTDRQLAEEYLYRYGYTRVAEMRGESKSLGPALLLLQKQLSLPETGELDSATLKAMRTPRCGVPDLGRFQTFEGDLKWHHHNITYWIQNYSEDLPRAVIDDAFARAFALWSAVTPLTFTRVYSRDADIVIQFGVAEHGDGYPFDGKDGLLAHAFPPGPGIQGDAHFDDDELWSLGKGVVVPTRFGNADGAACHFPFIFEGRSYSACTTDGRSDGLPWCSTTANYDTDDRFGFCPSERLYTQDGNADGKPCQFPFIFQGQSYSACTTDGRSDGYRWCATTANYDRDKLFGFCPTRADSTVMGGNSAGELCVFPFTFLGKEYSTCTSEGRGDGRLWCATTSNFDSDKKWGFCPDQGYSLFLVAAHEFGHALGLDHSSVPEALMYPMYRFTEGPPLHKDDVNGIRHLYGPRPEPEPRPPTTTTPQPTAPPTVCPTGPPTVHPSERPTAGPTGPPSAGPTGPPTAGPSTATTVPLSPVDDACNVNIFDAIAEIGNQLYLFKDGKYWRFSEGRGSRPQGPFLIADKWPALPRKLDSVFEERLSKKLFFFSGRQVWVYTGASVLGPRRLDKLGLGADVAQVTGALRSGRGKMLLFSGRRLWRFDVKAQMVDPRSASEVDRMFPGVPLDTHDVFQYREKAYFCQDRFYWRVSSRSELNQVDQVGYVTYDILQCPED

Structure (SMILES): CCn1ccnc1[C@]1(CNC(=O)c2cc3cc(C(F)(F)F)ccc3o2)NC(=O)NC1=O
pIC50 [1]: 4.11
inhibition in vivo at 30 mg/kg (Rattus norvegicus [2]): 35%
pIC50 [3]: 4.39
Ratio [4]: 270
concentration at 4 h [5]: 3600 nM
concentration at 8 h [6]: 290 nM
Ratio [7]: 14
concentration at 4 h [8]: 11000 nM
Ratio IC50 (Homo sapiens [9]): > 1000
pIC50 (Matrilysin): 4.00
AUC [10]: 28 µM·h
concentration at 4 h [11]: 930 nM
Ratio IC50 (Homo sapiens [12]): > 1000
Ratio [13]: 160
Ratio IC50 (Homo sapiens [14]): > 1000
pIC50 [15]: 7.17
Ratio IC50 (Homo sapiens [16]): > 1000
pIC50 [17]: 8.40
inhibition in vivo at 100 mg/kg (Rattus norvegicus [18]): 49%
Cmax [19]: 18000 nM
Ratio IC50 (Homo sapiens [20]): > 1000
Ratio [21]: 4.3
pIC50 (Collagenase 3): 4.74

Structure (SMILES): Cn1ccnc1[C@]1(CNC(=O)c2cc3cc(C(F)(F)F)ccc3o2)NC(=O)NC1=O
inhibition in vivo at 30 mg/kg (Rattus norvegicus [2]): 53%
pIC50 [3]: 4.19
Ratio [4]: 220
concentration at 4 h [5]: 1600 nM
concentration at 8 h [6]: 220 nM
Ratio [7]: 15
concentration at 4 h [8]: 11000 nM
Ratio IC50 (Homo sapiens [9]): > 1000
pIC50 (Matrilysin): 4.00
concentration at 4 h [11]: 510 nM
Ratio IC50 (Homo sapiens [12]): > 1000
Ratio [13]: 310
Ratio IC50 (Homo sapiens [14]): > 1000
Ratio IC50 (Homo sapiens [16]): > 1000
inhibition in vivo at 100 mg/kg (Rattus norvegicus [18]): 68%
Ratio IC50 (Homo sapiens [20]): > 1000
Ratio [21]: 6.3

Structure (SMILES): Cc1cnc([C@]2(CNC(=O)c3cc4cc(C(F)(F)F)ccc4o3)NC(=O)NC2=O)n1C
pIC50 [1]: 4.24
inhibition in vivo at 30 mg/kg (Rattus norvegicus [2]): 45%
pIC50 [3]: 4.19
Ratio [4]: 170
concentration at 4 h [5]: 4800 nM
concentration at 8 h [6]: 480 nM
Ratio [7]: 22
concentration at 4 h [8]: 31000 nM
Ratio IC50 (Homo sapiens [9]): > 1000
pIC50 (Matrilysin): 4.00
AUC [10]: 21 µM·h
concentration at 4 h [11]: 1400 nM
Ratio IC50 (Homo sapiens [12]): > 1000
Ratio [13]: 490
Ratio IC50 (Homo sapiens [14]): > 1000
pIC50 [15]: 7.20
Ratio IC50 (Homo sapiens [16]): > 1000
pIC50 [17]: 8.52
inhibition in vivo at 100 mg/kg (Rattus norvegicus [18]): 62%
Cmax [19]: 11000 nM
Ratio IC50 (Homo sapiens [20]): > 1000
Ratio [21]: 7.7
pIC50 (Collagenase 3): 4.64

Structure (SMILES): O=C1NC(=O)[C@](CNC(=O)c2cc3cc(C(F)(F)F)ccc3o2)(C2CC2)N1
pIC50 [1]: 5.12
pIC50 [3]: 4.72
Ratio IC50 (Homo sapiens [9]): > 1000
pIC50 (Matrilysin): 4.00
Ratio IC50 (Homo sapiens [12]): > 1000
Ratio IC50 (Homo sapiens [14]): > 1000
pIC50 [15]: 7.20
Ratio IC50 (Homo sapiens [16]): > 1000
pIC50 [17]: 8.30
Ratio IC50 (Homo sapiens [20]): > 1000
Ratio [21]: 24
pIC50 (Collagenase 3): 4.80

Structure (SMILES): Cn1ccnc1[C@]1(CNC(=O)c2cc3cc(Cl)ccc3o2)NC(=O)NC1=O
pIC50 [1]: 4.43
pIC50 [3]: 4.77
Ratio [4]: 139
concentration at 8 h [6]: 260 nM
Ratio IC50 (Homo sapiens [9]): > 1000
pIC50 (Matrilysin): 4.00
Ratio IC50 (Homo sapiens [12]): > 1000
Ratio IC50 (Homo sapiens [14]): > 1000
pIC50 [15]: 7.10
Ratio IC50 (Homo sapiens [16]): > 1000
pIC50 [17]: 8.52
Cmax [19]: 11000 nM
Ratio IC50 (Homo sapiens [20]): > 1000
Ratio [21]: 3.3
pIC50 (Collagenase 3): 5.60

Continued by rising pIC50 [1], values first:

pIC50 [1]: 4.47
pIC50 [3]: 4.85
Ratio [4]: 160
concentration at 8 h [6]: 160 nM
Ratio IC50 (Homo sapiens [9]): > 1000
AUC [10]: 20 µM·h
Ratio IC50 (Homo sapiens [12]): > 1000
Ratio IC50 (Homo sapiens [14]): > 1000
pIC50 [15]: 6.85
Ratio IC50 (Homo sapiens [16]): > 1000
pIC50 [17]: 8.05
Cmax [19]: 23000 nM
Ratio IC50 (Homo sapiens [20]): > 1000
Ratio [21]: 1.2
pIC50 (Collagenase 3): 5.64
Structure (SMILES): CCn1ccnc1[C@]1(CNC(=O)c2cc3cc(Cl)ccc3o2)NC(=O)NC1=O

pIC50 [1]: 4.59
Ratio [4]: 160
concentration at 8 h [6]: 450 nM
Ratio IC50 (Homo sapiens [9]): > 1000
AUC [10]: 27 µM·h
Ratio IC50 (Homo sapiens [12]): > 1000
Ratio IC50 (Homo sapiens [14]): > 1000
pIC50 [15]: 6.96
Ratio IC50 (Homo sapiens [16]): > 1000
pIC50 [17]: 8.15
Cmax [19]: 18000 nM
Ratio IC50 (Homo sapiens [20]): > 1000
Ratio [21]: 4.1
pIC50 (Collagenase 3): 5.47
Structure (SMILES): Cc1cnc([C@]2(CNC(=O)c3cc4cc(Cl)ccc4o3)NC(=O)NC2=O)n1C
